Experiment [1] deals with thrombin. The note with it: cited from earlier work; for inhibition of thrombin activity: at a concentration of 0.4 mg mL^−1, purified from Alcalase 2.4L hydrolysate of peanut protein. The source says: In addition, three peptides SWAQL, GNHEAGE and CFNEYE were purified from the A ...
The target of experiment [2] is T1, thrombin (Bos taurus, UniProt P00735).
T1 construct: thrombin consists of a 36-residue light chain and a 259-residue heavy chain; purchased Sigma-Aldrich Co. (St. Louis, MO, USA)
Description: fluorescence quenching of thrombin by P10 (Stern-Volmer, binding constant, thermodynamics). Further details: species or system Bovine. The note with it: 310 K, log (F0 − F)/F against log [Q].
Description: The Stern–Volmer plot at 290 K and 310 K was plotted to determine the quenching mechanism (static quenching or dynamic quenching), as shown in Fig. 2B. F0 and F represented the fluorescence intensity of thrombin in the absence and presence of P10, respectively. And [Q] represented the concentration of the quencher. In general, the stability and quenching constants of the compounds formed under the static quenching mechanism decrease with increasing temperature. The interaction under dynamic quenching increases the number of effective collisions and enhances energy transfer, thus increasing the quenching constant of the fluorescent material as the temperature increases.[26,30]
To confirm this conclusion, the fluorescence quenching data was further analyzed by the Stern–Volmer eqn (1).[31] Where Ksv represented the quenching constant of the Stern–Volmer.1 [drawing 1]
The binding constant (Kb) and the number of binding sites (n) can be obtained from eqn (2) when small molecules are independently bound to a set of equivalent sites on the macromolecule:[33]2 [drawing 2] […]
The fluorescence spectra were recorded on the Hitachi F-4500 fluorescence spectrophotometer (Hitachi, Japan). […] The fluorescence emission spectrum of the mixture from 290 nm to 420 nm was scanned, and the excitation wavelength was set to 280 nm. […]

The target of experiment [3] is T1, thrombin. Description: in vitro antithrombotic activity (thrombin-induced fibrinogen clotting, absorbance at 405 nm). Format: biochemical, Bovine. The method, then: Antithrombotic activity was determined according to the method of Yang et al.[53] The samples of thrombin and fibrinogen were dissolved in 0.05 M pH 7.4 Tris–HCl buffer, respectively. The determination was carried out using the IMark plate reader (Uji-shi, Kyoto, Japan) at 405 nm. 140 μL of 1 mg mL^−1 fibrinogen and 40 μL of the sample were added to the microplate, then mixed and the absorbance was recorded as Sb. After, 10 μL of thrombin (12 IU mL^−1) was added to the mixture which was maintained at 37 °C for 10 min, and the absorbance was recorded as S. 40 μL of buffer instead of the sample was used for control group, and the absorbances were Cb and C, respectively. The antithrombotic activity was calculated from eqn (5) as follows:5 [drawing 4]

Where no end group is shown, it is not given here.

In the case of “SWAQL [peptide purified from the Alcalase 2.4L hydrolysate of peanut protein]”, in the experiment on thrombin [1], the “inhibition of thrombin activity” value is reported as “complete inhibition”.

For the substance KNAENELGEVTVR, the antithrombotic activity with thrombin [1] (at a concentration of 1 mg mL^−1) is given as 67.21%.

Regarding “GNHEAGE [peptide purified from the Alcalase 2.4L hydrolysate of peanut protein]”, the “inhibition of thrombin activity” value with thrombin [1] was “complete inhibition”.

Take “VEPVTVNPHE [anticoagulant peptide purified from Buthus martensii Karsch]”: in the experiment with thrombin [1] (peptide purified from Buthus martensii Karsch), the “IC50, inhibition of thrombin activity” value is 12 µg/mL.

As to “CFNEYE [peptide purified from the Alcalase 2.4L hydrolysate of peanut protein]”, the “inhibition of thrombin activity” value in the experiment on thrombin [1] was “complete inhibition”.

As a reminder, the IC50 is the midpoint of a concentration-inhibition curve. The low end stands for greater potency, the high end for weaker potency. On to AGFAGDDAPR [P10, AGFAGDDAPR], for which the “Binding constant Kb” value at thrombin [2] was found to be 174 M⁻¹. The IC50 on thrombin [3] is 164 µM.

The record behind these values is PMC9064813, “Interaction of the synthetic antithrombotic peptide P10 with thrombin: a spectroscopy study” (RSC Advances, 2019).
